Reference: US3933782A, “(N-Acetyl)-Pro-D-Phe-Trp-Ser-Tyr-D-Ala-Leu-Arg-Pro-NHEt and intermediates” (American Home Products Corporation, priority 1974, dated 1976)
Where a SMILES comes first, the peptide text is derived from it. [ ]: non-standard residue; d: D form. pGlu = O=C1CC[C@@H](C(=O)O)N1

Columns and labels:
[1] = system: ovulation in mature Sprague-Dawley rats; details: same rat ovulation test; absence of or significant decrease in number of ova is the criterion
Method: The test was conducted with mature Sprague-Dawley rats, normally cycling, unanesthetized, proestrous rats. On the afternoon of proestrous, each rat in the test group received six subcutaneous injections of the acetate salt of formula I in corn oil, each injection being given a half hour following the previous injection. The rats are sacrificed the next morning and the number of animals ovulating and the number of ova shed are recorded following the procedure described by E. S. France, Neuroendocrinology 6, pp 77-89 (1970). The absence of or a significant decrease in the number of ova is the criterion for an anti-ovulation effect.

ovulation = details: as described in Ser. No. 402,958, now U.S. Pat. No. 3,855,199; cited from earlier work

Molecule | antiovulatory activity (result in words) [1] | anti-ovulatory activity (result in words) (ovulation)
CCNC(=O)[C@@H]1CCCN1C(=O)[C@H](CCCNC(=N)N)NC(=O)[C@H](CC(C)C)NC(=O)[C@@H](C)NC(=O)[C@H](Cc1ccc(O)cc1)NC(=O)[C@H](CO)NC(=O)[C@H](Cc1c[nH]c2ccccc12)NC(=O)[C@@H](Cc1ccccc1)NC(=O)[C@@H]1CCC(=O)N1 [p-Glu-D-Phe-Trp-Ser-Tyr-D-Ala-Leu-Arg-Pro-NHEt] ([pGlu][dF]WSY[dA]LRP-NHEt) | devoid of antiovulatory activity | 
[D-Phe^2 -D-Ala^6 ]-LRF |  | having anti-ovulatory activity
